Measurements published in ChEMBL document CHEMBL4311992, “Discovery of 3-(((9H-purin-6-yl)amino)methyl)-4,6-dimethylpyridin-2(1H)-one derivatives as novel tubulin polymerization inhibitors for treatment of cancer” (Eur J Med Chem, 2019).
Calls of active or inactive are those of the source. The rule behind the calls is not given here.

Columns and labels:
[1] = molecular target: Calcium/calmodulin-dependent protein kinase kinase 1 (Homo sapiens) (UniProt Q8N5S9); assay: Inhibition of recombinant full-length human CAMKk1 assessed as residual activity at 10 uM using calmodulin as substrate measured after 40 mins in presence of [gamma33P]ATP by scintillation counting method
A549 = assay: cells; conditions: Homo sapiens, A549, 72 h
Description: Antiproliferative activity against human A549 cells after 72 hrs by MTT assay

[2] = Toxicity in nude BALB/c mouse assessed as change in uric acid level at 40 to 80 mg/kg, po once daily for 4 weeks measured post-last dose; type: organism-based; conditions: in vivo, 672 h
[3] = molecular target: Dual specificity tyrosine-phosphorylation-regulated kinase 1A (Homo sapiens) (UniProt Q13627); assay: Inhibition of recombinant full-length human DYRK1A assessed as residual activity at 10 uM using RRRFRPASPLRGPPK as substrate measured after 40 mins in presence of [gamma33P]ATP by scintillation counting method
SW-620 [4] = assay: Induction of apoptosis in human SW620 cells assessed as increase in cleaved caspase9 expression measured after 48 hrs by Western blot analysis; type: functional, cell-based
[5] = molecular target: NT-3 growth factor receptor (Homo sapiens) (UniProt Q16288); assay: Inhibition of human TrkC (510 to end residues) using GEEPLYWSFPAKKK as substrate measured after 40 mins in presence of [gamma33P]ATP by scintillation counting method; design: scale not given: the % may be the effect or the level left
[6] = molecular target: Tyrosine-protein kinase Fer (Homo sapiens) (UniProt P16591); assay: Inhibition of recombinant human FER (541 to end residues) assessed as residual activity at 10 uM using KKKSPGEYVNIEFG as substrate measured after 40 mins in presence of [gamma33P]ATP by scintillation counting method
[7] = molecular target: Myosin light chain kinase, smooth muscle (Homo sapiens) (UniProt Q15746); assay: Inhibition of recombinant human MLCK (1425 to 1771 residues) assessed as residual activity at 10 uM using calmodulin as substrate measured after 40 mins in presence of [gamma33P]ATP by scintillation counting method
[8] = molecular target: Muscle, skeletal receptor tyrosine-protein kinase (Homo sapiens) (UniProt O15146); assay: Inhibition of recombinant human MuSK (530 to end residues) assessed as residual activity at 10 uM using myelin basic protein as substrate measured after 40 mins in presence of [gamma33P]ATP by scintillation counting method
[9] = molecular target: Serine/threonine-protein kinase B-raf (Homo sapiens) (UniProt P15056); assay: Inhibition of recombinant human BRAF (416 to end residues) assessed as residual activity at 10 uM using myelin basic protein as substrate measured after 40 mins in presence of [gamma33P]ATP by scintillation counting method
Mus musculus [10] = species on record: Mus musculus; assay: Inhibition of recombinant full-length mouse PI3K p110beta/p85beta R123L mutant assessed as residual activity at 10 uM using phosphatidylinositol-4, 5-bisphosphate as substrate measured after 40 mins by HTRF assay
[11] = system: Macrophage colony-stimulating factor 1 receptor (Homo sapiens), P07333 [Y969C]; assay: Inhibition of recombinant human FMS Y969C mutant (538 to end residues) assessed as residual activity at 10 uM using EEEEYEEEEEEYYIIEEEEEEYEEEEEEYYEEEEEEKKKK as substrate measured after 40 mins in presence of [gamma33P]ATP by scintillation counting method
SW-620 [12] = assay: Induction of apoptosis in human SW620 cells assessed as early apoptotic cells at 100 nM measured after 48 hrs by Annexin V-FITC/propidium iodide staining-based flow cytometry (reference value: 0.773%); type: functional
[13] = molecular target: Calcium/calmodulin-dependent protein kinase type IV (Homo sapiens) (UniProt Q16566); assay: Inhibition of recombinant full-length human CaMK4 assessed as residual activity at 10 uM using calmodulin as substrate measured after 40 mins in presence of [gamma33P]ATP by scintillation counting method
HCT-116 = assay: Induction of apoptosis in human HCT116 cells assessed as early apoptotic cells at 50 nM measured after 48 hrs by Annexin V-FITC/propidium iodide staining-based flow cytometry (reference value: 0.418%); type: functional
SW-620 [14] = assay: Cell cycle arrest in human SW620 cells assessed as up regulation of cdc25 expression up to 150 nM after 24 hrs by Western blot analysis; type: functional, cell-based
[15] = molecular target: Bone morphogenetic protein receptor type-1B (Homo sapiens) (UniProt O00238); assay: Inhibition of recombinant human ALK6 (148 to end residues) assessed as residual activity at 10 uM using casein as substrate measured after 40 mins in presence of [gamma33P]ATP by scintillation counting method
[16] = molecular target: Mitogen-activated protein kinase 1 (Homo sapiens) (UniProt P28482); assay: Inhibition of human MAPK2 assessed as residual activity at 10 uM
[17] = molecular target: Calcium/calmodulin-dependent protein kinase type 1B (Homo sapiens) (UniProt Q6P2M8); assay: Inhibition of recombinant full-length human CaMK1beta assessed as residual activity at 10 uM using calmodulin as substrate measured after 40 mins in presence of [gamma33P]ATP by scintillation counting method
[18] = molecular target: Serine/threonine-protein kinase Nek11 (Homo sapiens) (UniProt Q8NG66); assay: Inhibition of recombinant full-length human NEK11 assessed as residual activity at 10 uM using myelin basic protein as substrate measured after 40 mins in presence of [gamma33P]ATP by scintillation counting method
[19] = molecular target: Serine/threonine-protein kinase 3 (Homo sapiens) (UniProt Q13188); assay: Inhibition of recombinant full-length human MST2 (2 to end residues) assessed as residual activity at 10 uM using myelin basic protein as substrate measured after 40 mins in presence of [gamma33P]ATP by scintillation counting method
SW-620 [20] = assay: Induction of apoptosis in human SW620 cells measured after 48 hrs by Annexin V-FITC/propidium iodide staining-based flow cytometric analysis; type: functional, cell-based
SW-620 [21] = assay: Antiproliferative activity against human SW620 cells assessed as reduction in cell viability after 72 hrs by MTT assay; type: functional, cell-based; conditions: SW-620, 72 h
[22] = molecular target: BMP-2-inducible protein kinase (Homo sapiens) (UniProt Q9NSY1); assay: Inhibition of recombinant human BIKepsilon assessed as residual activity at 10 uM using peptide substrate measured after 120 mins in presence of [gamma33P]ATP by scintillation counting method
Mus musculus [23] = species on record: Mus musculus; assay: Inhibition of recombinant mouse ABL L782P/G784R/W785L/L786V mutant (27 to end residues) assessed as residual activity at 10 uM using EAIYAAPFAKKK as substrate measured after 40 mins in presence of [gamma33P]ATP by scintillation counting method
[24] = molecular target: Activin receptor type-1-like (Homo sapiens) (UniProt P37023); assay: Inhibition of recombinant human ALK1 (142 to end residues) assessed as residual activity at 10 uM using casein as substrate measured after 40 mins in presence of [gamma33P]ATP by scintillation counting method
[25] = molecular target: Mitogen-activated protein kinase kinase kinase kinase 4 (Homo sapiens) (UniProt O95819); assay: Inhibition of recombinant human MAP4K4 (1 to 328 residues) assessed as residual activity at 10 uM using RLGRDKYKTLRQIRQ as substrate measured after 40 mins in presence of [gamma33P]ATP by scintillation counting method

Serine/threonine-protein kinase Nek11 (Homo sapiens), sequence (Q8NG66 whole entry): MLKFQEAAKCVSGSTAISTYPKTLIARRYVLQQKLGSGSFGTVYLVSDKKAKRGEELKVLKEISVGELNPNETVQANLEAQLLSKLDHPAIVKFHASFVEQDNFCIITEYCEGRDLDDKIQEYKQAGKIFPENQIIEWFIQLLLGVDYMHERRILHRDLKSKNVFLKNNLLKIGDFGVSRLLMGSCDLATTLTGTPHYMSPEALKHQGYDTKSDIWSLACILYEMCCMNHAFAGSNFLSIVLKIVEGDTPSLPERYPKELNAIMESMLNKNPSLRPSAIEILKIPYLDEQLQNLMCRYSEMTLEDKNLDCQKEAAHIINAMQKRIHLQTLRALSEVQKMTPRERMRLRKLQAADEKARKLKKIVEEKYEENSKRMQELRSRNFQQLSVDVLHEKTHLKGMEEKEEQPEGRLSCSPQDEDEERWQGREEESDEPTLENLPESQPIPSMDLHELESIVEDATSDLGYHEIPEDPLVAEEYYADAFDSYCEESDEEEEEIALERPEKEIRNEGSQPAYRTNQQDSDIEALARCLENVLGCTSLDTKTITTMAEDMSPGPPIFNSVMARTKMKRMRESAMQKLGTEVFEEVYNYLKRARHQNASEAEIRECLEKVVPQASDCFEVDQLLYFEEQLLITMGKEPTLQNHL
Calcium/calmodulin-dependent protein kinase type 1B (Homo sapiens), sequence (Q6P2M8 whole entry): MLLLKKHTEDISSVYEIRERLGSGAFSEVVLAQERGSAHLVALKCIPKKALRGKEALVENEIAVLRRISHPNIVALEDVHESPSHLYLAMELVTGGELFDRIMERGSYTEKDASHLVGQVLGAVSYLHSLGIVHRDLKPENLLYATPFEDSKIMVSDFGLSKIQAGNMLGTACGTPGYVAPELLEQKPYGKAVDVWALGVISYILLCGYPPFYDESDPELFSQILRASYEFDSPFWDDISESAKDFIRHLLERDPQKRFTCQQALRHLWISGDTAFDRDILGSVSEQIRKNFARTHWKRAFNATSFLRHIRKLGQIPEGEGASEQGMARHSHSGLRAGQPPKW
Bone morphogenetic protein receptor type-1B (Homo sapiens), sequence (O00238 whole entry): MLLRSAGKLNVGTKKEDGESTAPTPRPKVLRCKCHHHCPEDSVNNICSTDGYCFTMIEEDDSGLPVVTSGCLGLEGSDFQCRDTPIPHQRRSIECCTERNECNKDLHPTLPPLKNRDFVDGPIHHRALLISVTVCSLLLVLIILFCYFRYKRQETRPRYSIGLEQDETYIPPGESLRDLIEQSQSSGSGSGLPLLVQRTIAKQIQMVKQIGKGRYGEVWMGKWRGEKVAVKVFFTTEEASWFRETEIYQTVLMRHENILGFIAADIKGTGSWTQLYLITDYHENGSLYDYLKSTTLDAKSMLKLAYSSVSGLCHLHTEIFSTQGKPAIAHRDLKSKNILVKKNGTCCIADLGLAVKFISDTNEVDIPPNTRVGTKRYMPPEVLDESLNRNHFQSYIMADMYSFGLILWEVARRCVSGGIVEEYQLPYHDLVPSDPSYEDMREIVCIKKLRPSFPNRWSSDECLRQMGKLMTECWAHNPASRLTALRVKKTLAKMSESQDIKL
BMP-2-inducible protein kinase (Homo sapiens), sequence (Q9NSY1 whole entry, looked up): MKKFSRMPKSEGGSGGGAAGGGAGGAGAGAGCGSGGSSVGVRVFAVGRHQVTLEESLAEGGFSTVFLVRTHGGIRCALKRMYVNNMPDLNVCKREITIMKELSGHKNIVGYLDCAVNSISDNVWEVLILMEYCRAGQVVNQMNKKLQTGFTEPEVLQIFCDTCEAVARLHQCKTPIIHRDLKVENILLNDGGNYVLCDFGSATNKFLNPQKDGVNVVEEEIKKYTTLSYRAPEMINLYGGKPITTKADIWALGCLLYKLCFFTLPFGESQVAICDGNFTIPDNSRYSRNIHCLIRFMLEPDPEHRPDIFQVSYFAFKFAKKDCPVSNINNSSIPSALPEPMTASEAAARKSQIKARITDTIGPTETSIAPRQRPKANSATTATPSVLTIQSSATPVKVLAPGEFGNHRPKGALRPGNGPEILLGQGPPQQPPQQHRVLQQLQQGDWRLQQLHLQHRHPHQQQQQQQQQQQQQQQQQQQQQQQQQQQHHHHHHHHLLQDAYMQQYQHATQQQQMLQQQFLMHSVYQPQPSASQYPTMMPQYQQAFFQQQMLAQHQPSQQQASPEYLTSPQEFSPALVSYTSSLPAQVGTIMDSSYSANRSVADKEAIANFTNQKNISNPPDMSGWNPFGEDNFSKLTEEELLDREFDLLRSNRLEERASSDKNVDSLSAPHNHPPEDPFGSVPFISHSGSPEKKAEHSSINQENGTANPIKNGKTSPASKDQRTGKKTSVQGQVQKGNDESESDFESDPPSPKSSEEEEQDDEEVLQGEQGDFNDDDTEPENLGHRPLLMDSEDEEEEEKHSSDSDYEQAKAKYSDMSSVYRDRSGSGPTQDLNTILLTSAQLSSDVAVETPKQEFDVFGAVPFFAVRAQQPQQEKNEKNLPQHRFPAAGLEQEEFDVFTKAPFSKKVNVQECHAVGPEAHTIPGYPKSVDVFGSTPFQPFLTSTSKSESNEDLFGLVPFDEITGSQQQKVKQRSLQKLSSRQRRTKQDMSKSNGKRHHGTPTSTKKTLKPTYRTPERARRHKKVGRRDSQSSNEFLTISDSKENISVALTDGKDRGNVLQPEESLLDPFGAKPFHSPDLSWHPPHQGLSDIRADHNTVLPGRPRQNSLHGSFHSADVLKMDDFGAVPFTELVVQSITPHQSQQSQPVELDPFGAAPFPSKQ
Serine/threonine-protein kinase 3 (Homo sapiens), sequence (Q13188 whole entry): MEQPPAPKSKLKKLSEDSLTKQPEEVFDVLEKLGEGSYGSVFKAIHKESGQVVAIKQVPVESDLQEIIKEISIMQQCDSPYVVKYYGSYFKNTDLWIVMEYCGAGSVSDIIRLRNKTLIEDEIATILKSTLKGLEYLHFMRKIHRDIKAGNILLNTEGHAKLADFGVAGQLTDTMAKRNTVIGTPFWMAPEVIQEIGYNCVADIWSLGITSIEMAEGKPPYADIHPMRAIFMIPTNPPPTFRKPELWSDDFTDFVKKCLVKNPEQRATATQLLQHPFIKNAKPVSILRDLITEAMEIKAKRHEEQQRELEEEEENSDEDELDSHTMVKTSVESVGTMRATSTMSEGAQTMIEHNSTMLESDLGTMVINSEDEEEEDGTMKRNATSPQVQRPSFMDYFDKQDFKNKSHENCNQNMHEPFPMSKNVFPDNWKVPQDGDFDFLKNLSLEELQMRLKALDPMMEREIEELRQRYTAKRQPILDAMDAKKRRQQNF
NT-3 growth factor receptor (Homo sapiens), sequence (Q16288 32-839 limits assumed): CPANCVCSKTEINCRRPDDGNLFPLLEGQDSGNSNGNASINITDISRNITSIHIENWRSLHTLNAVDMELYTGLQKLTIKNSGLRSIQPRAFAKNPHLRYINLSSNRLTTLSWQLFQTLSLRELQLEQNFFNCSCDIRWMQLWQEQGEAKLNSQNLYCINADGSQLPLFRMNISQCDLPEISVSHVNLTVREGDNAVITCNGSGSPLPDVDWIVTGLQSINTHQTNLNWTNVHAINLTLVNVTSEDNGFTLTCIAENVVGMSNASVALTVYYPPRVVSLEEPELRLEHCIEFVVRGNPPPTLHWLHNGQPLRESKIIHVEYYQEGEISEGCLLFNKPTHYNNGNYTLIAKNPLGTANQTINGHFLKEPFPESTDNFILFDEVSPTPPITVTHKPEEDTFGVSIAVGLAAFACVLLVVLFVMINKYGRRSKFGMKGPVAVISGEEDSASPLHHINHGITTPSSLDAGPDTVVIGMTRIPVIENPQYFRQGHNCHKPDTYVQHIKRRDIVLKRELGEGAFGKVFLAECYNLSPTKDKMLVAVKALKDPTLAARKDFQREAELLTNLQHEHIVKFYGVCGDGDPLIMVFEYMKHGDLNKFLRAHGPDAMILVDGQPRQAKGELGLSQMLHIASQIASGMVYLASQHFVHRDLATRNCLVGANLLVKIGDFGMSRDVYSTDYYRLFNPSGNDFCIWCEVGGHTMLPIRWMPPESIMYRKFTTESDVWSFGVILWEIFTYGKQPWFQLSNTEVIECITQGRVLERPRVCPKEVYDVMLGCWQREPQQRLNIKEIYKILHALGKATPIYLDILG
Muscle, skeletal receptor tyrosine-protein kinase (Homo sapiens), sequence (O15146 whole entry): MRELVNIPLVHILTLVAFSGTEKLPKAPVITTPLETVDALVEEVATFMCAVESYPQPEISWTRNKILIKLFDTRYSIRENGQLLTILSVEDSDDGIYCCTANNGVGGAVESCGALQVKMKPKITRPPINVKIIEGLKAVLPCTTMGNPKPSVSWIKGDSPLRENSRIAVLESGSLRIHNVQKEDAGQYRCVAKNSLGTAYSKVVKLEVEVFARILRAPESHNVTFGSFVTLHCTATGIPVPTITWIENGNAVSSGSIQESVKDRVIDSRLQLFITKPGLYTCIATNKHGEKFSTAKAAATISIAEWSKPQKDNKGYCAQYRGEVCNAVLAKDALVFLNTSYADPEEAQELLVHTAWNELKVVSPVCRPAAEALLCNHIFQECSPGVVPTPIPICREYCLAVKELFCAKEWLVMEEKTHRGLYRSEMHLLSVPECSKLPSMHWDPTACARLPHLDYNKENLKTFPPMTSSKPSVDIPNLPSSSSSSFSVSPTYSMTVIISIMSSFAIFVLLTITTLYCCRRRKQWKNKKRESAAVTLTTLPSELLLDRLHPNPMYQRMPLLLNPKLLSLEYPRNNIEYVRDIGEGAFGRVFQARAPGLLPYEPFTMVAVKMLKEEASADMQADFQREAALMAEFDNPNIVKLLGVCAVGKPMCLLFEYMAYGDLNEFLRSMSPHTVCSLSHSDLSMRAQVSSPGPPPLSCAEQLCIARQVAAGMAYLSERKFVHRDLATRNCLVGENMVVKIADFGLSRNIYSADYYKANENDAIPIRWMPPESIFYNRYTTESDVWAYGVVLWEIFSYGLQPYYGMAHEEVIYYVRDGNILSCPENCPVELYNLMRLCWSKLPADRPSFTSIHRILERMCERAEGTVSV

## Cc1cc(C)c(CNc2nc(Cl)nc3c2ncn3C2CCCC2)c(=O)[nH]1
[1]
  Activity: 102%
A549
  IC50: 100 nM
[2]
  Activity: Non-Toxic
[3]
  Activity: 100%
SW-620 [4]
  Activity: Dose-dependent effect
[5]
  Activity: 110%
[6]
  Activity: 108%
[7]
  Activity: 94%
[8]
  Activity: 114%
[9]
  Activity: 122%
Mus musculus [10]
  Activity: 101%
[11]
  Activity: 94.5%
SW-620 [12]
  Activity: 3.55%
[13]
  Activity: 121%
HCT-116
  Activity: 3.57%
SW-620 [14]
  Activity: Active
[15]
  Activity: 103%
[16]
  Activity: 104%
[17]
  Activity: 107%
[18]
  Activity: 102%
[19]
  Activity: 110%
SW-620 [20]
  Activity: Dose-dependent effect
SW-620 [21]
  IC50: 60 nM
[22]
  Activity: 83%
Mus musculus [23]
  Activity: 101%
[24]
  Activity: 98%
[25]
  Activity: 114%
